{"source": "patent US20050203155A1", "about": "“Imidazole compounds and human cellular proteins casein kinase I alpha, delta and epsilon as targets for medical intervention against Hepatitis C Virus infections” (priority 2002, published 2005)", "key": {"HCV RNA": {"test_system": "HCV RNA", "assay": "Metabolic labelling of HCV RNA in HCV replicon cell line 5-15 in the presence of actinomycin D", "type": "cell-based, Hepatitis C Virus", "settings": "50 μM, replicon cell line 5-15, actinomycin D, overnight [33P]-orthophosphate labelling", "method": "1×10^6 Huh7-5-15 replicon cells and Huh-pcDNA3 cells were seeded into 10 cm culture plates and grown as described. After 24 hours cells were washed with phosphate-free medium and incubated in phosphate-free medium supplemented with 10% phosphate-free calf serum. Actinomycin D at a final concentration of 5 μg/ml was added to the cells together with the tested compounds at final concentrations of 10 and 50 μM. After 30 minutes of incubation cells were supplemented with 200 μCi ^33P-orthophosphate per dish and incubated over night. After cell lysis, RNA isolation was performed using the RNeasy mini kit (QIAGEN) according to recommendations given by the manufacturer. Northern blot was carried out according to standard procedures and autoradiography of the membrane was performed."}, "CKI isoforms α, δ and ε": {"test_system": "CKI isoforms α, δ and ε", "assay": "In-vitro kinase assay, GST-NS5A phosphorylation by Mono Q Peak I fractions of Huh-7 cells", "type": "biochemical, human", "settings": "CKI-enriched partially purified Mono Q fraction of Huh-7 cells, FIG. 6A", "method": "Confluent 15 cm dishes of Huh-7 cells were lysed in 500 μl lysis buffer per dish containing 20 mM Tris (tris-(hydroxymethyl)-amino methane) pH 8.0, 10 mM NaF (sodium fluoride), 2 mM MgCl2 (Magnesium chloride), 1 mM DTT (dithiothreitol), 2 mM EGTA (ethylene glycol-bis(β-amino-ethyl ether)-N,N,N′,N′-tetraacetic acid), 1 mM PMSF (phenylmethylsulfonyl fluoride), 0.1% NP40 (Nonidet P-40), 10 μg/ml Aprotinin, 10 μg/ml Leupeptin, and 1 mM orthovanadate. Lysates were cleared by centrifugation (20 min, 13000 rpm, 4° C.) and filtered using a 0.45 μm syringe filter (Nalgene). This cleared material was further purified by a 1 ml Mono Q column (Amersham Biosciences) equilibrated with lysis buffer without additives. After washing the column, bound proteins were eluted with lysis buffer containing 1 M NaCl in a step gradient modus. Eluted proteins were collected in 1 ml fractions, systematically pooled, dialysed against 50 mM Tris pH 7.5, 10 mM NaF, 1 mM DTT, 0.01% Triton X-100 and stored at −80° C. Chromatography runs were performed on a AKTA explorer 10 system (Amersham Biosciences). Samples were subsequently assayed by in-vitro kinase assays and western blot analysis.\nGST-NS5A immobilized to Glutathione Sepharose 4B beads (Amersham Biosciences) was washed twice with 500 μl kinase buffer (50 mM Tris pH 7.5, 10 mM MgCl2, 0.5 mM DTT). […]"}, "Huh-5-2 replicon cells": {"test_system": "Huh-5-2 replicon cells", "assay": "Alamar Blue toxicity assay in Huh-5-2 replicon cells", "type": "cell-based, human", "settings": "for % of cell viability: 3 days, Huh-5-2, percentage of DMSO controls", "excerpt": "(§1) The Huh-5-2 cell line carries the persistant bicistronic replicon I389luc-ubi-neo/NS3-3′/5.1 that expresses a firefly luciferase-ubiquitin-neomycin phosphotransferase fusion protein under the control of the HCV 5′ UTR and the NS3-5B HCV polyprotein that harbors the cell culture adaptive mutation of NK5.1. (J. Virol. 75:4614-4624, 2001) and is driven by the EMCV-IRES. Autonomously replicating HCV RNA replicons are detectable by Northern blot or via expression of the luciferase part of the fusion protein in a luciferase reporter assay. For luciferase reporter assays, Huh-5-2 cells were seeded at 2500 cells per well in 96 well plates in medium without G418. […] On day 3 after addition of compounds, Alamar Blue™ solution (Serotec), which contains a redox indicator, was added to the cells to measure cell proliferation and compound cytotoxicity. After incubation for 3-4 hours, fluorescence was monitored at the wavelengths of 560 nm and 590 nm with a Wallac 1420 multilabel counter. For the luciferase assay, the cells were subsequently washed twice with PBS without sodium hydrogen carbonate (Life Technologies GmbH, Karlsruhe), and luciferase activity was determined with the LucLite Plus Assay Kit (Packard Bioscience B.V.) according to the manufacturer's instructions in a Wallac 1450 Microbeta Luminescence counter."}, "HCV replicons": {"test_system": "HCV replicons", "assay": "Luciferase reporter assay of HCV replicons in the Huh-5-2 cell line", "type": "cell-based, Hepatitis C Virus", "settings": "for % activity (luciferase, replicon RNA levels): 3 days, Huh-5-2, percentage of DMSO controls", "excerpt": "as §1"}}}
{"smiles": "C[S+]([O-])c1ccc(-c2nc(-c3cccc(I)c3)c(-c3ccncc3)[nH]2)cc1", "note": "(centres unmarked) [Compound 39, 4-[5-(3-Iodo-phenyl)-2-(4-methanesulfinyl-phenyl)-3H-imidazole-4-yl]-pyridine]", "values": [{"measurement": "synthesis of HCV RNA", "setting": "HCV RNA", "result": "reduced"}, {"measurement": "inhibitory effect on NS5A-phosphorylating kinase activity present in the Peak I fractions", "setting": "CKI isoforms α, δ and ε", "result": "potent inhibitor"}, {"measurement": "% of cell viability", "setting": "Huh-5-2 replicon cells; 1.25 μM", "result": 108, "unit": "%"}, {"measurement": "% of cell viability", "setting": "Huh-5-2 replicon cells; 2.5 μM", "result": 105, "unit": "%"}, {"measurement": "% of cell viability", "setting": "Huh-5-2 replicon cells; 5 μM", "result": 109, "unit": "%"}, {"measurement": "% of cell viability", "setting": "Huh-5-2 replicon cells; 10 μM", "result": 114, "unit": "%"}, {"measurement": "% of cell viability", "setting": "Huh-5-2 replicon cells; 20 μM", "result": 72, "unit": "%"}, {"measurement": "Toxicity", "setting": "Huh-5-2 replicon cells; up to a concentration of 10 μM, Huh-5-2", "result": "low"}, {"measurement": "% activity (luciferase, replicon RNA levels)", "setting": "HCV replicons; 1.25 μM", "result": 117, "unit": "%"}, {"measurement": "% activity (luciferase, replicon RNA levels)", "setting": "HCV replicons; 2.5 μM", "result": 104, "unit": "%"}, {"measurement": "% activity (luciferase, replicon RNA levels)", "setting": "HCV replicons; 5 μM", "result": 89, "unit": "%"}, {"measurement": "% activity (luciferase, replicon RNA levels)", "setting": "HCV replicons; 10 μM", "result": 28, "unit": "%"}, {"measurement": "% activity (luciferase, replicon RNA levels)", "setting": "HCV replicons; 20 μM", "result": 0, "unit": "%"}, {"measurement": "IC50", "setting": "HCV replicons; Hepatitis C virus, 72 h, Huh-5-2, 3 days, read-out: IC50, replication of subgenomic HCV replicon RNA in the luciferase reporter assay", "result": 9, "unit": "µM"}]}
